Data taken from patent US20040191849A1, “Method for identifying fungicides” (priority 2002, published 2004).
One block for each compound: values may come before it.

What was measured:
RPI = assay: Spectrophotometric RPI assay, increase in absorption at 290 nm (KM determination); details: read-out: KM value; substrate of RPI; Lineweaver-Burk plot; 400 ng of RPI; without coupled enzymes
Erysiphe graminis = assay: Induction of resistance to Erysiphe graminis in a plant; format: in vivo; details: Hordeum vulgaris; inoculated with Erysiphe graminis 4 days after treatment; 100 = maximum activity, 0 = no activity
Source text: In the case of Erysiphe graminis, the induction of resistance to this fungus, in a plant, was furthermore tested by way of example. To this end, the plant is inoculated with the pathogen 4 days after treatment of the plant with the test substance. The activity of the substance is given as efficacy in %.

[1] = tested on: ribose-phosphate isomerase; details: Jung et al., Arch. Biochem. Biophys. 373 (2000) 409-417; cited from earlier work

Km (RPI): 6.3 mM
Compound: O=C[C@H](O)[C@H](O)[C@H](O)COP(=O)(O)O [D-ribose-5-phosphate]

Compound: COc1ccc(S(=O)(=O)N(C)C)cc1CCC(C)NCC1CC2(CCCC2)Oc2ccccc21.O=C(O)/C=C/C(=O)O (stereo not drawn) [Example 2]
resistance induction (efficacy) (Erysiphe graminis): 50%

Compound: phosphate
ribose-phosphate isomerase inhibitor strength [1]: weak
